Source: the supplement of paper PMC10307832

Tests used:
Experiment in all cases: relative viability (nuclei count vs DMSO), 5 days (fraction); higher = more cells survive
[1] = system: LCLC-103H
How it was run: (§1)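 Medians of duplicate plates are given as relative viability. That measure is the nuclei count in treated wells divided by the count in vehicle wells. Counts were taken on 4× images of lung cancer cell lines in 1536-well plates, 5 days after pin-tool dosing the day after seeding with one drug alone or a fixed anchor-drug dose plus five library-drug doses (not always all listed) in √10 steps.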

[2] = system: NCI-H727
How it was run: as §1

[3] = system: EKVX
How it was run: as §1

[4] = system: NCI-H2170
How it was run: as §1

[5] = system: HCC-827
How it was run: as §1

[6] = system: NCI-H1666
How it was run: as §1

[7] = system: LOU-NH91
How it was run: as §1

[8] = system: NCI-H1944
How it was run: as §1

[9] = system: NCI-H1355
How it was run: as §1

[10] = system: HOP-62
How it was run: as §1

[11] = system: NCI-H661
How it was run: as §1

[12] = system: SK-MES-1
How it was run: as §1

[13] = system: LXF-289
How it was run: as §1

[14] = system: PC-14
How it was run: as §1

[15] = system: NCI-H647
How it was run: as §1

[16] = system: NCI-H1993
How it was run: as §1

[17] = system: NCI-H441
How it was run: as §1

[18] = system: NCI-H2126
How it was run: as §1

[19] = system: LK-2
How it was run: as §1

[20] = system: RERF-LC-KJ
How it was run: as §1

[21] = system: NCI-H1437
How it was run: as §1

SMILES: Cc1cn(-c2cc(NC(=O)c3ccc(C)c(Nc4nccc(-c5cccnc5)n4)c3)cc(C(F)(F)F)c2)cn1 [Nilotinib] + Cc1nc(NC(=O)N2CCC[C@H]2C(N)=O)sc1-c1ccnc(C(C)(C)C(F)(F)F)c1 [Alpelisib] (partner 2 µM)
- relative viability ([1]; first compound 0.001 µM): 1.03
- relative viability ([1]; first compound 0.003162 µM): 1.09
- relative viability ([1]; first compound 0.03162 µM): 1
- relative viability ([1]; first compound 0.1 µM): 0.956
- relative viability ([2]; first compound 0.001 µM): 0.573
- relative viability ([2]; first compound 0.01 µM): 0.719
- relative viability ([2]; first compound 0.03162 µM): 0.456
- relative viability ([2]; first compound 0.1 µM): 0.395
- relative viability ([3]; first compound 0.001 µM): 0.813
- relative viability ([3]; first compound 0.003162 µM): 1.13
- relative viability ([3]; first compound 0.01 µM): 1.29
- relative viability ([3]; first compound 0.03162 µM): 0.909
- relative viability ([3]; first compound 0.1 µM): 1.02
- relative viability ([4]; first compound 0.001 µM): 0.865
- relative viability ([4]; first compound 0.003162 µM): 0.916
- relative viability ([4]; first compound 0.01 µM): 1.15
- relative viability ([4]; first compound 0.03162 µM): 0.767
- relative viability ([4]; first compound 0.1 µM): 1.07
- relative viability ([5]; first compound 0.001 µM): 1.1
- relative viability ([5]; first compound 0.003162 µM): 1.09
- relative viability ([5]; first compound 0.01 µM): 1.03
- relative viability ([5]; first compound 0.1 µM): 0.92
- relative viability ([6]; first compound 0.001 µM): 0.877
- relative viability ([6]; first compound 0.003162 µM): 1.14
- relative viability ([6]; first compound 0.01 µM): 0.956
- relative viability ([6]; first compound 0.03162 µM): 0.831
- relative viability ([6]; first compound 0.1 µM): 0.856
- relative viability ([7]; first compound 0.001 µM): 0.741
- relative viability ([7]; first compound 0.003162 µM): 0.7
- relative viability ([7]; first compound 0.01 µM): 0.802
- relative viability ([7]; first compound 0.03162 µM): 0.707
- relative viability ([7]; first compound 0.1 µM): 0.676
- relative viability ([8]; first compound 0.001 µM): 0.867
- relative viability ([8]; first compound 0.003162 µM): 0.876
- relative viability ([8]; first compound 0.01 µM): 1.02
- relative viability ([8]; first compound 0.03162 µM): 0.837
- relative viability ([8]; first compound 0.1 µM): 0.767
- relative viability ([9]; first compound 0.001 µM): 0.764
- relative viability ([9]; first compound 0.003162 µM): 1.08
- relative viability ([9]; first compound 0.01 µM): 0.974
- relative viability ([9]; first compound 0.03162 µM): 0.784
- relative viability ([9]; first compound 0.1 µM): 0.931
- relative viability ([10]; first compound 0.001 µM): 0.889
- relative viability ([10]; first compound 0.003162 µM): 0.843
- relative viability ([10]; first compound 0.01 µM): 1.13
- relative viability ([10]; first compound 0.03162 µM): 0.742
- relative viability ([10]; first compound 0.1 µM): 0.7
- relative viability ([11]; first compound 0.001 µM): 0.647
- relative viability ([11]; first compound 0.003162 µM): 0.592
- relative viability ([11]; first compound 0.01 µM): 0.721
- relative viability ([11]; first compound 0.03162 µM): 0.366
- relative viability ([11]; first compound 0.1 µM): 0.651
- relative viability ([12]; first compound 0.001 µM): 0.881
- relative viability ([12]; first compound 0.003162 µM): 1.15
- relative viability ([12]; first compound 0.01 µM): 0.95
- relative viability ([12]; first compound 0.03162 µM): 0.829
- relative viability ([12]; first compound 0.1 µM): 1.01
- relative viability ([13]; first compound 0.001 µM): 1.02
- relative viability ([13]; first compound 0.003162 µM): 1.26
- relative viability ([13]; first compound 0.01 µM): 1.23
- relative viability ([13]; first compound 0.03162 µM): 0.935
- relative viability ([13]; first compound 0.1 µM): 0.93
- relative viability ([14]; first compound 0.003162 µM): 1.08
- relative viability ([14]; first compound 0.03162 µM): 0.547
- relative viability ([14]; first compound 0.1 µM): 0.888
- relative viability ([15]; first compound 0.001 µM): 0.956
- relative viability ([15]; first compound 0.003162 µM): 1.16
- relative viability ([15]; first compound 0.03162 µM): 0.958
- relative viability ([15]; first compound 0.1 µM): 0.872
- relative viability ([16]; first compound 0.001 µM): 0.716
- relative viability ([16]; first compound 0.003162 µM): 0.66
- relative viability ([16]; first compound 0.01 µM): 0.755
- relative viability ([16]; first compound 0.03162 µM): 0.594
- relative viability ([16]; first compound 0.1 µM): 0.617
- relative viability ([17]; first compound 0.001 µM): 0.761
- relative viability ([17]; first compound 0.003162 µM): 1.14
- relative viability ([17]; first compound 0.01 µM): 0.765
- relative viability ([17]; first compound 0.1 µM): 0.951
- relative viability ([18]; first compound 0.001 µM): 0.732
- relative viability ([18]; first compound 0.003162 µM): 0.809
- relative viability ([18]; first compound 0.01 µM): 0.85
- relative viability ([18]; first compound 0.03162 µM): 0.829
- relative viability ([18]; first compound 0.1 µM): 0.575
- relative viability ([19]; first compound 0.001 µM): 1.16
- relative viability ([19]; first compound 0.003162 µM): 0.966
- relative viability ([19]; first compound 0.03162 µM): 1
- relative viability ([19]; first compound 0.1 µM): 1.22
- relative viability ([20]; first compound 0.001 µM): 0.788
- relative viability ([20]; first compound 0.003162 µM): 0.831
- relative viability ([20]; first compound 0.01 µM): 0.838
- relative viability ([20]; first compound 0.03162 µM): 0.727
- relative viability ([20]; first compound 0.1 µM): 0.777
- relative viability ([21]; first compound 0.001 µM): 0.829
- relative viability ([21]; first compound 0.003162 µM): 1.17
- relative viability ([21]; first compound 0.01 µM): 1.39
- relative viability ([21]; first compound 0.03162 µM): 0.75
- relative viability ([21]; first compound 0.1 µM): 0.971
